Patent publication US20260216138A1, “IDENTIFICATION OF OTUD7B INHIBITOR 7BI AND ITS APPLICATION IN REDUCING GROWTH OF NSCLC AND LEUKEMIA CELLS” (The University of North Carolina at Chapel Hill, priority 2023, published 2026)

How the values were obtained:
[1] = system: Akt-pS473; assay: Akt-pS473 western blotting in NSCLC cells (A549, H358, H520, H1299); assay type: cell-based
Protocol: (§1) Cells were harvested and lysed in EBC buffer (50 mM Tris pH 7.5, 120 mM NaCl, 0.5% NP-40) supplemented with protease inhibitor cocktail (EDTA-free, mini-tablet) (Bimake) and phosphatase inhibitor cocktail (Bimake) by rotating in the cold room for 10 min followed by high-speed centrifugation at 4° C. The protein concentrations in supernatants of whole cell lysates were measured by NanoDrop OneC using the Bio-Rad Bradford protein assay reagent. Equal amounts of whole cell lysates were resolved on SDS-PAGE and immunoblotted with indicated antibodies. For immunoprecipitation analysis, 1 mg of total cell lysate was incubated with the indicated beads for 3-4 hr at 4° C. The recovered immuno-complexes were washed thoroughly three times with NETN buffer (20 mM Tris, pH 8.0, 100 mM NaCl, 1 mM EDTA and 0.5% NP-40) before being resuspended in SDS sample buffer and resolved on SDS-PAGE and immunoblotted with indicated antibodies.
Next, we used two approaches to search for possible OTUD7B inhibitors by monitoring Akt-pS473 changes including Akt-pS473 ELISA and western blotting in A549 cells treated with each of these 59 small molecules for 16 hrs at a concentration of 10 uM (FIG. 1A). In Akt-pS473 ELISA assays using Torin 2 (a pan-mTOR inhibitor) as a positive control and DMSO as a negative control (FIG. 1E), we found 15 compounds with an inhibitory ability above 30% (FIG. 1F). […]

[2] = system: Akt-pS473; assay: Akt-pS473 immunoblot in leukemia cells (HL60, K562, THP1); assay type: cell-based; conditions: indicated doses, 16 hrs
Protocol: as §1
In addition to NSCLC, overexpression of OTUD7B was also observed in diffuse large B-cell lymphoma and served as a prognostic marker. This promoted us to examine roles of OTUD7B in leukemia cells. […] Similar to NSCLC cells, depletion of OTUD7B in K562 cells also led to increased K63-linked GβL ubiquitination (FIG. 4D). Consistent with a reduction in Akt-pS473 signals, OTUD7B depletion reduced the growth of THP1 (FIG. 4E), K562 (FIG. 4F) and HL60 (FIG. 4G) cells in vitro.

[3] = molecular target: T1, OTUD7A (Homo sapiens, UniProt Q8TE49); assay: Ubiquitin-AMC assay, OTUD7A; assay type: biochemical; conditions: 50 μM 7Bi, 10 μM OTUD7A, 2 uM ubiquitin-AMC
T1 construct: OTUD7A (residues 1-462); GST (N, cleaved yes); made in house; host or cells: E. coli BL21-Codon Plus (DE3)-RIL
T1 sequence (Q8TE49 1-462): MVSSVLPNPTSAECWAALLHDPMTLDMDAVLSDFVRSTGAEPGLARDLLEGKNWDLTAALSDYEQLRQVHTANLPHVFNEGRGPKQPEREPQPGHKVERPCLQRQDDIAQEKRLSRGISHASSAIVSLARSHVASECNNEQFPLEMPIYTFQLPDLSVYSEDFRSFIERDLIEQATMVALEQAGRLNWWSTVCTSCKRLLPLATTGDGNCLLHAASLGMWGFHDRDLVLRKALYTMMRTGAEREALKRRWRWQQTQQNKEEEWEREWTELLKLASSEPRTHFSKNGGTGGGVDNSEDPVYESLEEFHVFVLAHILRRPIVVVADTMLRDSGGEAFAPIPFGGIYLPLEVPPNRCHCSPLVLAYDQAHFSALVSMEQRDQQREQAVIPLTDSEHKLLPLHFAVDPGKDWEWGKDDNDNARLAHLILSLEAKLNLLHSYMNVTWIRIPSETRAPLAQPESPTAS
Protocol: 50 μM 7Bi were incubated with 300 nM OTUD7B (residues 56-446), 10 μM OTUD7A (residues 1-462), 200 nM USP21 (residues 196-565), or 500 nM USP9X (residues 1551-1970) in reaction buffer (20 mM HEPES pH=8.0, 200 mM NaCl, 0.25 mg/mL BSA and 0.005% Tween-20) for 5 min at room temperature. Then, 2 uM ubiquitin-AMC was added to start the reaction. The fluorescence emission data was collected at an excitation wavelength of 355 nm and emission wavelength of 460 nm every 3 min. Reactions were completed three times to generate the error bars.

[4] = system: H1299 cells; assay: Colony formation / growth of H1299 cells; assay type: cell-based; conditions: treated once for 10 days
Protocol: 500 cells from OTUD7B depleted A549 cells were seeded into each well of 6-well plates and cultured in the 37° C. incubator with 5% CO2 for 10-15 days until formation of visible colonies. Triplicates were performed. To test the effect of a given inhibitor on colony formation ability, 800 cells from A549, H520 and H1299 cell lines were seeded into each well of 6-well plates, respectively. Each inhibitor was added at indicated concentration the next day. Colonies were counted after 10 days of treatment. The colony staining method was as described. […] Colony numbers were counted manually. […]
2,000 cells from indicated NSLC cell lines were seeded into each well of 96-well plates. Cell viability was measured 3 days post-treatment using MTT assays following manufacturer's instruction. […] Inhibitor was added the next day at indicated concentration and cell viability was measured after 3-day treatment. For cell proliferation assays in THP1, K562 and HL60 cell lines, 1×10^6 cells from each indicated cell line were seeded in 12.5 cm2 cell culture flask and cells were counted by hemocytometer under microscope at indicated time to monitor cell proliferation. […] Inhibitor was added the next day at indicated concentrations and cell number was counted after 3 days treatment. […]

IC50 ([1]; NSCLC cells, read-out: IC50 values to inhibit Akt-pS473 signals): 1 to 10 µM
inhibition of hydrolysis of ubiquitin-AMC by OTUD7A [3]: but not its close family member OTUD7A
SMILES: Cc1cc(NC(=O)c2cnn(C)c2C(=O)Nc2cc(C)nn2C2CCCC2)n(C2CCCC2)n1 [7Bi]
suppressing Akt-pS473 signal in at least 3 out of 4 NSCLC lines tested ([1]; A549, H358, H520, H1299, 10 uM for 16 hrs, dose- and time-dependent): showed effects in suppressing Akt-pS473 signal
Akt-pS473 signals ([2]; HL60 cells): reduced Akt-pS473 signals
Akt-pS473 signals ([2]; K562 cells): reduced Akt-pS473 signals
Akt-pS473 signals ([2]; THP1 cells): reduced Akt-pS473 signals
cell growth [4]: reduced growth
